Test results taken from patent US11434239B2, “Aza-dihydro-acridone derivatives” (Artax Biopharma Inc., priority 2017, dated 2022).
Read-outs that look alike come from different tables or passages of the source.

Columns and labels:
CYP1A2 = target: T1, CYP1A2 (Homo sapiens, UniProt P05177); test: CYP inhibition, microsomes; assay type: in vitro ADME; conditions: metabolite acetaminophen
T1 construct: premixing appropriate volumes of buffer, microsomes and substrate; from tissue
T1 sequence (P05177 1-516): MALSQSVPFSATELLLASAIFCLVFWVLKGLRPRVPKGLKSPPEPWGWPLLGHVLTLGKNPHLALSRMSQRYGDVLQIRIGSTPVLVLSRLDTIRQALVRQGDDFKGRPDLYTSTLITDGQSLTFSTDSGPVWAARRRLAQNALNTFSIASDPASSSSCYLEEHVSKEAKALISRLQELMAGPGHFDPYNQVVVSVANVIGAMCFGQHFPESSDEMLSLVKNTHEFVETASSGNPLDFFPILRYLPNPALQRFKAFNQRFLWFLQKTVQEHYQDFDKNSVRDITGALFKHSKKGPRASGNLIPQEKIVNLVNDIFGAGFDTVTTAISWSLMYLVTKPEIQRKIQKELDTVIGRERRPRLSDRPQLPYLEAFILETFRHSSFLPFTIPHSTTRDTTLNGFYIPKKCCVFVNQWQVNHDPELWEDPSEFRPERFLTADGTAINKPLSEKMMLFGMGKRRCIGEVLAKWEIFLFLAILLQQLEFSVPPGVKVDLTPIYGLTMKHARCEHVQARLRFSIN
Protocol: (§1) For each isozyme, microsomes-buffer-substrate mixture (MBS mix) is prepared by premixing appropriate volumes of buffer, microsomes and substrate. MBS mixture (179 μL) is transferred to a 96-well reaction plate. An aliquot (1 μL) is spiked from corresponding wells of Test Item stock solution plate to reaction plate. The reaction plate is pre-incubated for 5 minutes at 37° C. Reaction is initiated by the addition of 20 μL of NADPH solution. Each experiment is performed in duplicate. Reaction plate is incubated for predetermined time at 37° C. and quenched using either 200 μL of acetonitrile (for CYP2C9, CYP2D6, CYP2C19 and CYP3A4) or 200 μL of a mixture of 70:30 1% formic acid:acetonitrile (for CYP1A2).

CYP2C19 = target: T2, CYP2C19 (Homo sapiens, UniProt P33261); test: CYP inhibition, microsomes; assay type: in vitro ADME; conditions: metabolite 4′-hydroxy mephenytoin, class symbols
T2 construct: premixing appropriate volumes of buffer, microsomes and substrate; from tissue
T2 sequence (P33261 whole entry): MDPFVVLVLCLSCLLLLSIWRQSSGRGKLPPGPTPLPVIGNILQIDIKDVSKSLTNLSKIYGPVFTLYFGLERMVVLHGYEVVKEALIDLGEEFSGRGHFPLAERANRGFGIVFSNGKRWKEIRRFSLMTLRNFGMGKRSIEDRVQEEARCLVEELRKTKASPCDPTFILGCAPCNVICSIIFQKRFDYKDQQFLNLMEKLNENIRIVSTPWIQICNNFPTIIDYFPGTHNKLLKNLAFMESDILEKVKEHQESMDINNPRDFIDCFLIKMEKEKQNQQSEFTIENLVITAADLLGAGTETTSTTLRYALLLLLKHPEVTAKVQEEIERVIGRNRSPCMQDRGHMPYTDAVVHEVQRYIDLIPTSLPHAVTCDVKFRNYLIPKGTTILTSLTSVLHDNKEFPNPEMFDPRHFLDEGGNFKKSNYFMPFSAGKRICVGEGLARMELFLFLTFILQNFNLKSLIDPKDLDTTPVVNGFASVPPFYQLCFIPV
Protocol: as §1

CYP2C9 = target: T3, CYP2C9 (Homo sapiens, UniProt P11712); test: CYP inhibition, microsomes; assay type: in vitro ADME; conditions: metabolite 4-hydroxy diclofenac
T3 construct: premixing appropriate volumes of buffer, microsomes and substrate; from tissue
T3 sequence (P11712 whole entry): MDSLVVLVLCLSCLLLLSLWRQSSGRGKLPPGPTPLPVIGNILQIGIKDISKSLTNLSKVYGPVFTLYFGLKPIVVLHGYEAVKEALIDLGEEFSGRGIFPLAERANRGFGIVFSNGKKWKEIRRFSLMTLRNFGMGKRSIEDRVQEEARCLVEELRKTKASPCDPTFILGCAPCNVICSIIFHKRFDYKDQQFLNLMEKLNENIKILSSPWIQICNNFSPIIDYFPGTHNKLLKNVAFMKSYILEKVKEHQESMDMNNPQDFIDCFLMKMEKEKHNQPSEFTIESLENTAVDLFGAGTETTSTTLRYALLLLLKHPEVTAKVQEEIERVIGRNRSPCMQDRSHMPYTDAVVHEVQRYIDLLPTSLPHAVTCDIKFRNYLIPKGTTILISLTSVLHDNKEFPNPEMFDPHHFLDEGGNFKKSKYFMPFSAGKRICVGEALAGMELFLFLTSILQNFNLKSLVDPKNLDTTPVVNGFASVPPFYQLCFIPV
Protocol: as §1

CYP2D6 = target: T4, CYP2D6 (Homo sapiens, UniProt P10635); test: CYP inhibition, microsomes; assay type: in vitro ADME; conditions: metabolite dextrorphan, class symbols
T4 construct: premixing appropriate volumes of buffer, microsomes and substrate; from tissue
T4 sequence (P10635 whole entry): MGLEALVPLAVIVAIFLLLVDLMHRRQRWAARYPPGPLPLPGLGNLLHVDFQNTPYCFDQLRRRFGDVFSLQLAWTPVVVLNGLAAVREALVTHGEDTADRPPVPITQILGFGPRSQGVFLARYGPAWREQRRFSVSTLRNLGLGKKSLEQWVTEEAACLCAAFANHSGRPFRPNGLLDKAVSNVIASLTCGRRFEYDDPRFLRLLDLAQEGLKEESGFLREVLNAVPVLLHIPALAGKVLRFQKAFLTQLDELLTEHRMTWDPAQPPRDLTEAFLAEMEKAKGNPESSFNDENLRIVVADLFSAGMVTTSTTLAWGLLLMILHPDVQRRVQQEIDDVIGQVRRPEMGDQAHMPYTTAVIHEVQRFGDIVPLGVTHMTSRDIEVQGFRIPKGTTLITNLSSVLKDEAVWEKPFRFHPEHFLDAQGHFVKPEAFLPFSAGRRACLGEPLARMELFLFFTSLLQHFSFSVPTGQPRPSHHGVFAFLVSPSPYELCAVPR
Protocol: as §1

CYP3A4 = target: T5, CYP3A4 (Homo sapiens, UniProt P08684); test: CYP inhibition, microsomes; assay type: in vitro ADME
T5 construct: premixing appropriate volumes of buffer, microsomes and substrate; from tissue
T5 sequence (P08684 whole entry): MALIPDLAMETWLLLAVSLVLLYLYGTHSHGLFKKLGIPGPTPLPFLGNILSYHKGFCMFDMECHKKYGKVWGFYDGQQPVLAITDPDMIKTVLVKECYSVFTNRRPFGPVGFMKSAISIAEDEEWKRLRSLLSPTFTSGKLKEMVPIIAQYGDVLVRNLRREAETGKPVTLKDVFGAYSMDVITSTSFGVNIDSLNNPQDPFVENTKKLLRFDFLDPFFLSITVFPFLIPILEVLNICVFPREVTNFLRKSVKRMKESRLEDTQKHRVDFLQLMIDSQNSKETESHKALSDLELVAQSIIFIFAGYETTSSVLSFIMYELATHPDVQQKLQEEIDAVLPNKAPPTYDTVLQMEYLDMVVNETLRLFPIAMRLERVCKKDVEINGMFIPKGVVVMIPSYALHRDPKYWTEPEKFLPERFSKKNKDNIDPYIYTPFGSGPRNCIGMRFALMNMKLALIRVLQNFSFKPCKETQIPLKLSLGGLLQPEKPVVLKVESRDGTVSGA
Protocol: as §1

[1] = Microsomal stability (intrinsic clearance study); assay type: in vitro ADME; conditions: 0.5 mg/mL protein
Protocol: Intrinsic clearance studies are performed individually with mouse, rat and human liver microsomes at 0.5 mg/mL protein concentration. Briefly, for protein concentration 0.5 mg/mL assay, liver microsomal protein (12.5 uL), NAPDH (50 uL) and phosphate buffer (435 uL) are co-incubated (pre-incubation) in a 96-well deep well plate in an orbital incubator (10 min, 37° C.). Reactions are initiated by the addition of 2.5 uL of test item working stock solution (100 uM). Aliquots (50 uL) are withdrawn from the reaction tube at 0, 5, 10, 20 and 30 minutes and the reaction is immediately terminated by transferring to a 96 deep well plate containing 50 uL of acetonitrile. Verapamil is used as a positive control in mouse, rat and human liver microsomes. To the quenched samples internal standard is added and vortex mixed followed by centrifugation at 4000 rpm for 10 minutes and an aliquot of supernatant is taken for LC-MS/MS analysis. Samples are analyzed by a suitable fit-for-purpose multiple reaction monitoring method developed on LC-MS/MS using and API 4000 mass spectrometer to estimate the area ratio (analyte peak area/internal standard peak area).

hERG = target: T6, hERG (Homo sapiens, UniProt Q12809); test: hERG inhibition, IKr current, patch clamp in HEK cells stably transfected with the hERG clone; assay type: cell-based; conditions: for inhibition at 1 µM / inhibition at 3 µM / inhibition at 10 µM / inhibition at 30 µM: human, HEK cells stably transfected with hERG; for inhibition at 1 µM: pH 7.4, 1 μM; for inhibition at 3 µM: pH 7.4, 3 μM; for inhibition at 10 µM: pH 7.4, 10 μM; for inhibition at 30 µM: pH 7.4, 30 μM; for IC50: test concentrations 1, 3, 10 and 30 μM, read-out: hERG IC 50 (IKr current)
T6 construct: expressed in transfected cells
T6 sequence (Q12809 whole entry): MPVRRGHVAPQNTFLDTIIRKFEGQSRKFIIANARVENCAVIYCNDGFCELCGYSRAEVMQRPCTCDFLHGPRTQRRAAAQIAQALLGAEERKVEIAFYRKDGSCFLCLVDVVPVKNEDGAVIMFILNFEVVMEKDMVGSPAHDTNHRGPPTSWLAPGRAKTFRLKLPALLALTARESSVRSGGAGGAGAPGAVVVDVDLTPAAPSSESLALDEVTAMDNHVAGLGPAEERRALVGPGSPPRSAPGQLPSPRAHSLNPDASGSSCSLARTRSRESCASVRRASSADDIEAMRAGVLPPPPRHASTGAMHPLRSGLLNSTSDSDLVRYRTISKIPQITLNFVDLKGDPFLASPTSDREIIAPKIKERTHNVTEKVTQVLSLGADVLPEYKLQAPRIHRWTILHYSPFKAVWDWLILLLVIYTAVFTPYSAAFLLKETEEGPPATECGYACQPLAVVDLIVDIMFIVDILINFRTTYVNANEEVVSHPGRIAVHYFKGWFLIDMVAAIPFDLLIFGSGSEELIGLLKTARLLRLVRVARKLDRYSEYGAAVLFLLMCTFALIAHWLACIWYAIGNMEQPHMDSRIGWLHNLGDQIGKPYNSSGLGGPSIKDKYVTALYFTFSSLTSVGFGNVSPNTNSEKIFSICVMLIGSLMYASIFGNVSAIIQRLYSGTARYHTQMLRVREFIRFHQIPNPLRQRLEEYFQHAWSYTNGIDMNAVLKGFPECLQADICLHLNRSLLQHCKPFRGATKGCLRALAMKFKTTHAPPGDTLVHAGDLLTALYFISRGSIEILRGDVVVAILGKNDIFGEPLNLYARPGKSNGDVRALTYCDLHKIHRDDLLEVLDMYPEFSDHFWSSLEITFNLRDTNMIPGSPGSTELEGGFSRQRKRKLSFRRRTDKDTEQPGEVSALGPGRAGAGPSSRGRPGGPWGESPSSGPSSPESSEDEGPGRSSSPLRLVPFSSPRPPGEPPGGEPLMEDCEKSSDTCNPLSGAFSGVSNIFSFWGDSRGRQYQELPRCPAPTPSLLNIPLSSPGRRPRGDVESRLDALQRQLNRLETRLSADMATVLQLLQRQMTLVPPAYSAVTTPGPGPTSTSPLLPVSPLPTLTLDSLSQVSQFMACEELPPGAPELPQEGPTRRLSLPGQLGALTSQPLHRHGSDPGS
Protocol: HEK cells stably transfected with the hERG clone are maintained at 37±2° C. in a 5% CO2 incubator. The cells are initially revived and grown in DMEM/F12+GlutaMAX-I medium supplemented with 9% fetal bovine serum (FBS) and antibiotics (Penicillin 100 IU/mL Streptomycin 100 μg/mL) (complete medium). Furthermore, the cells are continuously maintained and passaged in complete media in addition to the appropriate concentration of selection antibiotic (Geneticin (G418) 200 μg/mL) (Selection media). The cells are sub cultured every 2-3 days and medium is changed with complete medium at least a day before the experiment.
The cells are harvested on the day of experiment, dislodged and suspended in sterile filtered external solution (NaCl 140 mM, KCl 4 mM, MgCl2 1 mM, CaCl2 2 mM, D-Glucose monohydrate 5 mM, Hepes/NaOH 10 mM, pH 7.4, Osmolarity:298+/−5 mOsmol).
The NPC®-1 chip of the Port-a-Patch® is filled with 5 μL of internal solution (KCl 50 mM, NaCl 10 mM, KFl 60 mM, EGTA 20 mM, Hepes/KOH 10 mM, pH 7.2, Osmolarity: 285+/−5 mOsmol) and it is screwed onto the chip holder. The Faraday cage is then fixed on the chip holder, such that the external electrode is placed near to the chip aperture. 5 μL of external solution is added to the center of the aperture so that the external electrode is also in contact with the solution.
The experiment is be initiated. […] The suction automatically attracts a cell to the aperture, resulting in an increase in the chip resistance. When the cell is captured and the set threshold for the resistance is reached, the software recognizes this increase in resistance and proceeds to the next step of the sealing procedure. 20 μL of seal enhancer solution (NaCl 80 mM, KCl 4 mM, MgCl2 10 mM, CaCl2 35 mM, Hepes (Na+salt)/HCl pH 7.4, Osmolarity: 298+/−5 mOsmol) is added 2-3 times. When the threshold resistance is reached, Patch Control automatically moves to the step of improving the seal. When the desirable resistance (Rpip) is reached, whole cell mode is attained and maintained.
Finally, hERG protocol is selected to run the experiment. The seal enhancer solution is replaced with 20 μL external solution after 2-4 rinses and then the test item is added (from lower to higher concentration) and checked for current inhibition. All the experiments are performed at ambient temperature (22-25° C.).
A schematic diagram of the Pulse protocol: Cells are stimulated every 10 seconds using the following protocol. The holding potential, sweep intervals and the depolarization/repolarization potentials are furnished in the table below.
Once the stable current is attained (at least 2-5 minutes) vehicle control is added and the current measured till the stable current is achieved. 3-5 consecutive data points from the last stable current phase are considered for further analysis. […] The system performs on-line analysis for several parameters which include functions that acquire data from traces and functions that perform calculations on the results of other functions.

[2] = column CYP3A4^a (footnote a not given), class symbols, read-out: CYP IC50 CYP3A4^a
[3] = column CYP3A4^b (footnote b not given), class symbols, read-out: CYP IC50 CYP3A4^b
[4] = human liver microsomes, read-out: Microsomal stability (T½ min) Human
[5] = mouse liver microsomes, read-out: Microsomal stability (T½ min) Mouse
[6] = rat liver microsomes, read-out: Microsomal stability (T½ min) Rat
[7] = mean of two trials, read-out: Percent Inhibition Mean (%) (IKr current)
[8] = read-out: Percent Inhibition Trial I (IKr current)
[9] = read-out: Percent Inhibition Trial II (IKr current)

Cn1c2c(c(=O)c3ccccc31)CN(Cc1ccccc1)CC2 [Compound I-1, 2-benzyl-5-methyl-1,2,3,4-tetrahydro(5H, 10H)-benzo(b)-1,6-naphthyridin-10-one]
IC50 (CYP1A2; class symbols): 20 to 50 µM
IC50 (CYP2C19): 20 to 50 µM
IC50 (CYP2C9; class symbols): > 50 µM
IC50 (CYP2D6): ≤ 5 µM
IC50 (CYP3A4; [2]): > 50 µM
IC50 (CYP3A4; [3]): > 50 µM
half-life at 0.5 uM [1, 4]: ≤ 30 min
half-life at 0.5 uM [1, 5]: 10 to 30 min
half-life at 0.5 uM [1, 6]: 10 to 30 min
inhibition at 1 µM (hERG; [7]): 9.04%
inhibition at 1 µM (hERG; [8]): 9.22%
inhibition at 1 µM (hERG; [9]): 8.85%
inhibition at 3 µM (hERG; [7]): 20.9%
inhibition at 3 µM (hERG; [8]): 20.4%
inhibition at 3 µM (hERG; [9]): 21.4%
inhibition at 10 µM (hERG; [7]): 37.8%
inhibition at 10 µM (hERG; [8]): 39.6%
inhibition at 10 µM (hERG; [9]): 35.9%
inhibition at 30 µM (hERG; [7]): 58.6%
inhibition at 30 µM (hERG; [8]): 58.9%
inhibition at 30 µM (hERG; [9]): 58.3%
IC50 (hERG): 18.4 µM

CN1c2ccccc2C(O)C2CN(Cc3ccccc3)CCC21 (centres unmarked) [Ia-1]
IC50 (CYP1A2; class symbols): 5 to 20 µM
IC50 (CYP2C19): ≤ 5 µM
IC50 (CYP2D6): ≤ 5 µM
IC50 (CYP3A4; [2]): ≤ 5 µM
IC50 (CYP3A4; [3]): 20 to 50 µM
half-life at 0.5 uM [1, 4]: 10 to 30 min
half-life at 0.5 uM [1, 5]: < 10 min
half-life at 0.5 uM [1, 6]: < 10 min
inhibition at 1 µM (hERG; [7]): 11.4%
inhibition at 1 µM (hERG; [8]): 12.9%
inhibition at 1 µM (hERG; [9]): 9.88%
inhibition at 3 µM (hERG; [7]): 21.9%
inhibition at 3 µM (hERG; [8]): 21.3%
inhibition at 3 µM (hERG; [9]): 22.5%
inhibition at 10 µM (hERG; [7]): 28.9%
inhibition at 10 µM (hERG; [8]): 29.4%
inhibition at 10 µM (hERG; [9]): 28.3%
inhibition at 30 µM (hERG; [7]): 54.4%
inhibition at 30 µM (hERG; [8]): 54.8%
inhibition at 30 µM (hERG; [9]): 54.1%
IC50 (hERG): 25.7 µM

O=c1c2c([nH]c3cc(F)c(F)cc13)CCN(Cc1ccccc1)C2 [Ib-22]
IC50 (CYP1A2; numeric bound): > 12.5 µM
IC50 (CYP2C19): 5 to 20 µM
IC50 (CYP2C9; numeric bound): > 12.5 µM
IC50 (CYP2D6): ≤ 5 µM
IC50 (CYP3A4; CYP3A4^a, numeric bound, read-out: CYP IC50 CYP3A4^a): > 12.5 µM
IC50 (CYP3A4; numeric bound, read-out: CYP IC50 CYP3A4^b): > 12.5 µM
half-life at 0.5 uM [1, 4]: ≤ 30 min
half-life at 0.5 uM [1, 5]: 10 to 30 min
half-life at 0.5 uM [1, 6]: 10 to 30 min
inhibition at 1 µM (hERG; [7]): 4.5%
inhibition at 1 µM (hERG; [8]): 5.62%
inhibition at 1 µM (hERG; [9]): 3.37%
inhibition at 3 µM (hERG; [7]): 15.3%
inhibition at 3 µM (hERG; [8]): 16%
inhibition at 3 µM (hERG; [9]): 14.6%
inhibition at 10 µM (hERG; [7]): 21.4%
inhibition at 10 µM (hERG; [8]): 23.8%
inhibition at 10 µM (hERG; [9]): 19%
inhibition at 30 µM (hERG; [7]): 30.1%
inhibition at 30 µM (hERG; [8]): 34%
inhibition at 30 µM (hERG; [9]): 26.2%
IC50 (hERG): 47.3 µM
